Like-named read-outs stand apart in the source and are kept apart here.
Tests used:
LS-411N = assay: Drug combination screen (ATPlite, Synergy Score), LS-411N; type: cell-based, human
SW480 = assay: Drug combination screen (ATPlite, Synergy Score), SW480; type: cell-based, human
DLD-1 = assay: Drug combination screen (ATPlite, Synergy Score), DLD-1
HCT 116 = assay: Drug combination screen (ATPlite, Synergy Score), HCT 116
SNU-C2B = assay: Drug combination screen (ATPlite, Synergy Score), SNU-C2B
[1] = compound in combination with IgG1-hDR5-01-G56T-E430G + IgG1-hDR5-05-E430G, LS-411N, 72 hour ATPlite, 6x6 matrix
[2] = compound in combination with IgG1-hDR5-01-G56T-E430G + IgG1-hDR5-05-E430G, SW480, 72 hour ATPlite, 6x6 matrix
[3] = compound in combination with IgG1-hDR5-01-G56T-E430G + IgG1-hDR5-05-E430G, DLD-1, 120 hour ATPlite, 6x6 matrix
[4] = compound in combination with IgG1-hDR5-01-G56T-E430G + IgG1-hDR5-05-E430G, HCT 116, 120 hour ATPlite, 6x6 matrix
[5] = compound in combination with IgG1-hDR5-01-G56T-E430G + IgG1-hDR5-05-E430G, SNU-C2B, 72 hour ATPlite, 6x6 matrix

Compound | Synergy Score LS-411N (LS-411N; [1]) | Synergy Score SW480 (SW480; [2]) | Synergy Score DLD-1 (DLD-1; [3]) | Synergy Score HCT-116 (HCT 116; [4]) | Synergy Score SNU-C2B (SNU-C2B; [5]) | Synergy Score LS-411N (LS-411N) | Synergy Score SW480 (SW480) | Synergy Score DLD-1 (DLD-1) | Synergy Score HCT-116 (HCT 116) | Synergy Score SNU-C2B (SNU-C2B)
Cn1c(Nc2ccc(C(F)(F)F)cc2)nc2cc(Oc3ccnc(-c4ncc(C(F)(F)F)[nH]4)c3)ccc21 [RAF265] | 10.5 | 4.5 | 5.6 | 2.5 | 3.7 | – | – | – | – | –
O=C1NC(=O)C(c2ccccc2[N+](=O)[O-])=C1Nc1ccc(O)c(Cl)c1 [SB 415286] | 2.1 | 3.8 | 0.4 | 0.8 | 0.7 | – | – | – | – | –
Cn1cc(C2=C(c3ccc(Cl)cc3Cl)C(=O)NC2=O)c2ccccc21 [SB-216763] | 1.1 | 1.4 | 0.5 | 0.1 | 0.3 | – | – | – | – | –
Oc1c2ccccc2c2c3c(cccc13)N=N2 [SP 600125] | 0.5 | 0.9 | 3.3 | 0.6 | 2 | – | – | – | – | –
CC(C)=CCC/C(C)=C/CC/C(C)=C/CSc1ccccc1C(=O)O [Salirasib] | 0 | 0.4 | 0.1 | 0.1 | 0.4 | – | – | – | – | –
CNC(=O)c1cc(Oc2ccc(NC(=O)Nc3ccc(Cl)c(C(F)(F)F)c3)cc2)ccn1 [Sorafenib] | 6 | 3.9 | 2.6 | 0.5 | 2.9 | – | – | – | – | –
Cc1ccccc1CN1C(=O)C2=C(CCN(Cc3ccccc3)C2)N2CCN=C12 [TIC10] | – | – | – | – | – | 23.3 | 3.4 | 15.5 | 2.2 | 13.1
CO[C@H]1C[C@@H]2CC[C@@H](C)[C@@](O)(O2)C(=O)C(=O)N2CCCC[C@H]2C(=O)O[C@H]([C@H](C)C[C@@H]2CC[C@@H](OC(=O)C(C)(CO)CO)[C@H](OC)C2)CC(=O)[C@H](C)/C=C(\C)[C@@H](O)[C@@H](OC)C(=O)[C@H](C)C[C@H](C)/C=C/C=C/C=C/1C [Temsirolimus] | 0.6 | 1.6 | 0.7 | 0.6 | 4.5 | – | – | – | – | –
CC(=O)Nc1cccc(-n2c(=O)n(C3CC3)c(=O)c3c(Nc4ccc(I)cc4F)n(C)c(=O)c(C)c32)c1 [Trametinib] | 0.9 | 7.2 | 4.1 | 4 | 0.6 | – | – | – | – | –
COc1cc2nccc(Oc3ccc(NC(=O)C4(C(=O)Nc5ccc(F)cc5)CC4)cc3)c2cc1OC [XL184] | 5.8 | 6 | 4.1 | 1 | 1.5 | – | – | – | – | –
COCCn1c2c([n+](Cc3cnccn3)c1C)C(=O)c1ccccc1C2=O [YM155] | 9 | 12.1 | 5.2 | 0.5 | 11.5 | – | – | – | – | –
CC(=O)O[C@@]12CO[C@@H]1C[C@H](O)[C@@]1(C)C(=O)[C@H](O)C3=C(C)[C@@H](OC(=O)[C@H](O)[C@@H](NC(=O)OC(C)(C)C)c4ccccc4)C[C@@](O)([C@@H](OC(=O)c4ccccc4)[C@H]21)C3(C)C [docetaxel] | 36.2 | 19.5 | 17.6 | 7.9 | 15.8 | – | – | – | – | –
CCc1c2c(nc3ccc(OC(=O)N4CCC(N5CCCCC5)CC4)cc13)-c1cc3c(c(=O)n1C2)COC(=O)[C@]3(O)CC [irinotecan, reference compound] | 6.8 | 24.7 | 15 | 4.4 | 13.4 | – | – | – | – | –
IC-87114 | 0.2 | 0 | 0 | 0.1 | 0.1 | – | – | – | – | –

— US20200247897A1, “THERAPEUTIC ANTIBODIES BASED ON MUTATED IGG HEXAMERS” (GENMAB B.V., priority 2017, published 2020)
